Reference: US8207206B2, “(S,R)-3-phenyl-4,5 dihydro-5-isoxazole acetic acid-nitric oxide and use thereof as anti-cancer and antiviral agent” (OncoNOx APS, priority 2007, dated 2012)

Tests used:
B16 mouse melanoma cells = experiment: MTT / CV cell viability test; type: cell-based; details: B16 cells, different concentrations, 24 h; cell number also reduced by CV
Experimental: (§1) Rat glioma cell line C6 was a kind gift from Dr. Pedro Tranque (Universidad de Castilla-La Mancha, Albacete, Spain), murine melanoma B16 cell line was a kind gift from Dr. Sinisa Radulovic (Institute for Oncology and Radiology of Serbia, Belgrade, Serbia) while mouse fibrosarcoma L929 was obtained from the European Collection of Animal Cell Cultures (Salisbury, UK). Cells were grown in HEPES-buffered RPM, 1640 medium supplemented with 5% FCS, 2 mM glutamine, 0.01% sodium pyruvate, 5×10^−5 M 2-mercaptoethanol and antibiotics (culture medium) at 37° C. in a humidified atmosphere with 5% CO2. After conventional trypsinization the cells were seeded at a concentration of 10^4 cells/well in a 96-well plate, of 2×10^5 cells/well in a 6-well plate or at 3×10^4 cells/well in a 4-well chamber slide, cultivated overnight, and then exposed to the test compound.
(§2) The cells were seeded in flat-bottom 96-well plates (10^4 cells/well) in a final volume of 200 μl of culture medium, incubated overnight, then treated with different concentrations of the test compound. After 24 h incubation, cell viability was assessed using 3-4,5-dimethylthiazol-2-yl)-2,5-diphenyltetrazolium bromide (MTT) test, based on the mitochondrial-dependent reduction of MTT to formazan, or by crystal violet (CV) staining of adherent cells, as previously described (Mijatovic et al CMLS 2004). The results are presented as % of control values obtained in untreated cultures. The rate of cell proliferation was also determined using flow cytometric analysis of cells labeled with CFSE (Kang 2005). The cells were detached, added with 1.5 μM CFSE and allowed to stand for 15 min at 37° C., then washed twice and seeded in 6-well plates at 2×10^5. The cells were treated with the compound for 24 and 48 h, trypsinized and washed twice. Finally, the cells were resuspended in PBS and analyzed by flow cytometry. Green fluorescence emission from cells illuminated with excitation light of 488 nm was measured with a FACS Calibur (BD, Heidelberg, Germany) and analyzed using the CellQuest software.

C6 rat astrocytoma cells = experiment: MTT / CV cell viability test; type: cell-based; details: C6 cells, different concentrations, 24 h; cell number also reduced by CV
Experimental: as §1, §2

[1] = tested on: L929 mouse fibrosarcoma cells; experiment: MTT / CV cell viability test; type: cell-based; details: L929 cells, different concentrations, 24 h; cell number also reduced by CV
Experimental: as §1, §2

diabetes = details: NOD mice with spontaneous or accelerated diabetes, or multiple low dose streptozotocin diabetes; cited from earlier work
C6 cells = experiment: ROS measurement by DHR fluorescence (flow cytometry); type: cell-based, rat; details: C6, 25 μg/ml, 24 h
Experimental: (§3) The cells grown in the 6-well plate were stained with 1 μM dihydrorhodamine 123 (DHR) 20 min before the treatment with the test compound. At the end of the cultivation period the cells were detached, washed and resuspended in PBS. Analysis of ROS release was performed with a FACSCalibur and analyzed using CellQuest Pro software (Kaludjerovic 2005).

B16 cells = experiment: as above; type: cell-based, mouse; details: B16, 25 μg/ml, 24 h
Experimental: as §3

L929 cells = experiment: as above; type: cell-based, mouse; details: L929, 25 μg/ml, 24 h
Experimental: as §3

With `O=C(O)CC1CC(c2ccccc2)=NO1` (racemic) [VGX-1027, (S,R)-3-phenyl-4,5-dihydro-5-isoxasole acetic acid, reference compound] the “cell viability (MTT, mitochondrial respiration)” value (“cell viability” below) (B16 mouse melanoma cells) was “did not affect the viability”, the “cell viability” value (C6 rat astrocytoma cells) was “did not affect the viability” and the “cell viability” value [1] was “did not affect the viability”. For the same molecule, the diabetes progress (diabetes) was “significantly reduces diabetes progress”, the “intracellular production of ROS (DHR fluorescence)” value (“intracellular production of ROS” below) (C6 cells) was “did not release ROS” and the “intracellular production of ROS” value (B16 cells) was “did not release ROS”. For the same molecule, the “intracellular production of ROS” value (L929 cells) was “did not release ROS”.
